Data taken from PMC7736581, “Activation of the IRE1 RNase through remodeling of the kinase front pocket by ATP-competitive ligands” (Nature Communications, 2020).

Experiments:
Assay in all cases: biochemical
Set-up in all cases: Invitrogen kinase panel: Z'Lyte activity (ATP at Km) or LanthaScreen competitive ATP-site binding, percent inhibition
[1] = target: CAMKK2 (Homo sapiens, UniProt Q96RR4)
[2] = target: LRRK2 (Homo sapiens, UniProt Q5S007)
[3] = target: Ret (Homo sapiens, UniProt P07949)
[4] = target: T1, MKK6 (Homo sapiens, UniProt P52564)
T1 construct: gene MAP2K6
T1 sequence (P52564 whole entry): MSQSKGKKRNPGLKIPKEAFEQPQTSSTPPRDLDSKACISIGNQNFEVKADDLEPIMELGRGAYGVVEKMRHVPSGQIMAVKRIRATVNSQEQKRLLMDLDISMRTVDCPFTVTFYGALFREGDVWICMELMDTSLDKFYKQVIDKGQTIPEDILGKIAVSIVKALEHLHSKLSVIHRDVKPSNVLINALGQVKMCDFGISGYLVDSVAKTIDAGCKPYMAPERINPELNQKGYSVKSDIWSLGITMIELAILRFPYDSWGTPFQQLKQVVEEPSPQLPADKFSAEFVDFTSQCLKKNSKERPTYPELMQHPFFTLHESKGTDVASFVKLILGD

[5] = target: GRK2 (Homo sapiens, UniProt P25098)
[6] = target: DAPK1 (Homo sapiens, UniProt P53355)
[7] = target: T2, CK1_epsilon1 (Homo sapiens, UniProt P49674)
T2 construct: gene CSNK1E; epsilon 1
T2 sequence (P49674 whole entry): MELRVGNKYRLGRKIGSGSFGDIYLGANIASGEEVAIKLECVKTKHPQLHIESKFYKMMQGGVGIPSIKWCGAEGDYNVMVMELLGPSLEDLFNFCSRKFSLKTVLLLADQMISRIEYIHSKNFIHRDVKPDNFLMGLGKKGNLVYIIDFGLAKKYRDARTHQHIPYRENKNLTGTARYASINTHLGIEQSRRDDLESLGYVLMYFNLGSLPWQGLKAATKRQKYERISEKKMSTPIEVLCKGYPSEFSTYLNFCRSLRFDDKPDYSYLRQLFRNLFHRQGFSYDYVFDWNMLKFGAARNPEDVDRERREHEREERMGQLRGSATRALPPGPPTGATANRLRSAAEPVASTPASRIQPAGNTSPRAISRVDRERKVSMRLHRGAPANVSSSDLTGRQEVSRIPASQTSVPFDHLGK

[8] = target: SGK1 (Homo sapiens, UniProt O00141)
Sequence of SGK1 (O00141 whole entry): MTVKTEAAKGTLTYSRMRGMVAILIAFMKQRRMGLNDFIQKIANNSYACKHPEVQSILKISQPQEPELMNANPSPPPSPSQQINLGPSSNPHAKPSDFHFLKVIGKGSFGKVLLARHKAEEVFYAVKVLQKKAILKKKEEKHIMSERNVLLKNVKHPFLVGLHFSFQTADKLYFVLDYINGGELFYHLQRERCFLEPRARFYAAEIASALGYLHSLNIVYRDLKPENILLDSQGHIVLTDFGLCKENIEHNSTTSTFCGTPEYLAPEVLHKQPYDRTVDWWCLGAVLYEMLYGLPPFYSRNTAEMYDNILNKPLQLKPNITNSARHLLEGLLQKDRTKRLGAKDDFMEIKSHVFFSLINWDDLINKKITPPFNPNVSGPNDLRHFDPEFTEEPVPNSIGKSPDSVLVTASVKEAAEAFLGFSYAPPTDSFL

[9] = target: T3, ASK1 (Homo sapiens, UniProt Q99683)
T3 construct: gene MAP3K5

[10] = target: T4, PRK1 (Homo sapiens, UniProt Q16512)
T4 construct: gene PKN1

[11] = target: RIPK2 (Homo sapiens, UniProt O43353)
[12] = target: DYRK4 (Homo sapiens, UniProt Q9NR20)
[13] = target: Fes (Homo sapiens, UniProt P07332)
[14] = target: Axl (Homo sapiens, UniProt P30530)
[15] = target: EGFR (Homo sapiens, UniProt P00533)
[16] = target: CDK7/cyclinH (Homo sapiens, UniProt P50613)
[17] = target: JAK2 (Homo sapiens, UniProt O60674)
[18] = target: DYRK3 (Homo sapiens, UniProt O43781)
Sequence of DYRK3 (O43781 whole entry): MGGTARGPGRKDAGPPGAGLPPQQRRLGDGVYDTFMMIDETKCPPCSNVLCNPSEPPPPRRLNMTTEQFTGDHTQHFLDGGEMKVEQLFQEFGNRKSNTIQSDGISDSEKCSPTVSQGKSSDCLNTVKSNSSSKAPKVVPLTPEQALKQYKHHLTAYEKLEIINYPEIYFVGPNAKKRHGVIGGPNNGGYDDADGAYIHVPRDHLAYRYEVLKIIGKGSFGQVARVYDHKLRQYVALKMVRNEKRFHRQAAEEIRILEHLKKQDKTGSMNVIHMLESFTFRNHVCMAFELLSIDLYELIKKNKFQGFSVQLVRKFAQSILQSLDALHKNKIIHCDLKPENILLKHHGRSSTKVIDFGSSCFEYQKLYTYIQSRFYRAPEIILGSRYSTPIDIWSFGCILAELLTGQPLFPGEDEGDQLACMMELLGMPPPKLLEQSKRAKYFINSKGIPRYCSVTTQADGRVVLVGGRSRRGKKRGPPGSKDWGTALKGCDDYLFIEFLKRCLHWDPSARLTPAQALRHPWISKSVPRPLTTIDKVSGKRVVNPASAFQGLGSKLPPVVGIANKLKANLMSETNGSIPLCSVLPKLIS

[19] = target: CLK1 (Homo sapiens, UniProt P49759)
[20] = target: EphA3 (Homo sapiens, UniProt P29320)
[21] = target: TTK (Homo sapiens, UniProt P33981)
[22] = target: AKT1 (Homo sapiens, UniProt P31749)
[23] = target: T5, MEKK2 (Homo sapiens, UniProt Q9Y2U5)
T5 construct: gene MAP3K2

[24] = target: GRK5 (Homo sapiens, UniProt P34947)
Sequence of GRK5 (P34947 whole entry): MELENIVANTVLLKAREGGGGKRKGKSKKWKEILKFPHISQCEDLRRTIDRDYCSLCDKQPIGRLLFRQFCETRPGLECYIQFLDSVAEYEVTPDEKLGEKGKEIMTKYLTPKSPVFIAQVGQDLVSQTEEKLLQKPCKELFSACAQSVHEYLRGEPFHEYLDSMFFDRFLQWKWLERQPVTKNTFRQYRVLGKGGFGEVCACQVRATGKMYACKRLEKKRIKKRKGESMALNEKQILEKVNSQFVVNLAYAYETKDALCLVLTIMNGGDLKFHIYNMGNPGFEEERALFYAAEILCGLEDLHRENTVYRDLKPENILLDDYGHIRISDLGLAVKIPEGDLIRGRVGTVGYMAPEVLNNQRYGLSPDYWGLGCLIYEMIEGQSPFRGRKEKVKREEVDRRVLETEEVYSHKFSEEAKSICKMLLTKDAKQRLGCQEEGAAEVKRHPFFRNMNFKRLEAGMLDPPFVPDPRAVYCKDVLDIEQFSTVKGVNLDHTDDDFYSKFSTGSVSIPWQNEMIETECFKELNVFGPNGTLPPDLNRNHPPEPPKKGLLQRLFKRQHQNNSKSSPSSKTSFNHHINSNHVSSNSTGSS

[25] = target: T6, MST3 (Homo sapiens, UniProt Q9Y6E0)
T6 construct: gene STK24

Sequence of LRRK2 (Q5S007 whole entry): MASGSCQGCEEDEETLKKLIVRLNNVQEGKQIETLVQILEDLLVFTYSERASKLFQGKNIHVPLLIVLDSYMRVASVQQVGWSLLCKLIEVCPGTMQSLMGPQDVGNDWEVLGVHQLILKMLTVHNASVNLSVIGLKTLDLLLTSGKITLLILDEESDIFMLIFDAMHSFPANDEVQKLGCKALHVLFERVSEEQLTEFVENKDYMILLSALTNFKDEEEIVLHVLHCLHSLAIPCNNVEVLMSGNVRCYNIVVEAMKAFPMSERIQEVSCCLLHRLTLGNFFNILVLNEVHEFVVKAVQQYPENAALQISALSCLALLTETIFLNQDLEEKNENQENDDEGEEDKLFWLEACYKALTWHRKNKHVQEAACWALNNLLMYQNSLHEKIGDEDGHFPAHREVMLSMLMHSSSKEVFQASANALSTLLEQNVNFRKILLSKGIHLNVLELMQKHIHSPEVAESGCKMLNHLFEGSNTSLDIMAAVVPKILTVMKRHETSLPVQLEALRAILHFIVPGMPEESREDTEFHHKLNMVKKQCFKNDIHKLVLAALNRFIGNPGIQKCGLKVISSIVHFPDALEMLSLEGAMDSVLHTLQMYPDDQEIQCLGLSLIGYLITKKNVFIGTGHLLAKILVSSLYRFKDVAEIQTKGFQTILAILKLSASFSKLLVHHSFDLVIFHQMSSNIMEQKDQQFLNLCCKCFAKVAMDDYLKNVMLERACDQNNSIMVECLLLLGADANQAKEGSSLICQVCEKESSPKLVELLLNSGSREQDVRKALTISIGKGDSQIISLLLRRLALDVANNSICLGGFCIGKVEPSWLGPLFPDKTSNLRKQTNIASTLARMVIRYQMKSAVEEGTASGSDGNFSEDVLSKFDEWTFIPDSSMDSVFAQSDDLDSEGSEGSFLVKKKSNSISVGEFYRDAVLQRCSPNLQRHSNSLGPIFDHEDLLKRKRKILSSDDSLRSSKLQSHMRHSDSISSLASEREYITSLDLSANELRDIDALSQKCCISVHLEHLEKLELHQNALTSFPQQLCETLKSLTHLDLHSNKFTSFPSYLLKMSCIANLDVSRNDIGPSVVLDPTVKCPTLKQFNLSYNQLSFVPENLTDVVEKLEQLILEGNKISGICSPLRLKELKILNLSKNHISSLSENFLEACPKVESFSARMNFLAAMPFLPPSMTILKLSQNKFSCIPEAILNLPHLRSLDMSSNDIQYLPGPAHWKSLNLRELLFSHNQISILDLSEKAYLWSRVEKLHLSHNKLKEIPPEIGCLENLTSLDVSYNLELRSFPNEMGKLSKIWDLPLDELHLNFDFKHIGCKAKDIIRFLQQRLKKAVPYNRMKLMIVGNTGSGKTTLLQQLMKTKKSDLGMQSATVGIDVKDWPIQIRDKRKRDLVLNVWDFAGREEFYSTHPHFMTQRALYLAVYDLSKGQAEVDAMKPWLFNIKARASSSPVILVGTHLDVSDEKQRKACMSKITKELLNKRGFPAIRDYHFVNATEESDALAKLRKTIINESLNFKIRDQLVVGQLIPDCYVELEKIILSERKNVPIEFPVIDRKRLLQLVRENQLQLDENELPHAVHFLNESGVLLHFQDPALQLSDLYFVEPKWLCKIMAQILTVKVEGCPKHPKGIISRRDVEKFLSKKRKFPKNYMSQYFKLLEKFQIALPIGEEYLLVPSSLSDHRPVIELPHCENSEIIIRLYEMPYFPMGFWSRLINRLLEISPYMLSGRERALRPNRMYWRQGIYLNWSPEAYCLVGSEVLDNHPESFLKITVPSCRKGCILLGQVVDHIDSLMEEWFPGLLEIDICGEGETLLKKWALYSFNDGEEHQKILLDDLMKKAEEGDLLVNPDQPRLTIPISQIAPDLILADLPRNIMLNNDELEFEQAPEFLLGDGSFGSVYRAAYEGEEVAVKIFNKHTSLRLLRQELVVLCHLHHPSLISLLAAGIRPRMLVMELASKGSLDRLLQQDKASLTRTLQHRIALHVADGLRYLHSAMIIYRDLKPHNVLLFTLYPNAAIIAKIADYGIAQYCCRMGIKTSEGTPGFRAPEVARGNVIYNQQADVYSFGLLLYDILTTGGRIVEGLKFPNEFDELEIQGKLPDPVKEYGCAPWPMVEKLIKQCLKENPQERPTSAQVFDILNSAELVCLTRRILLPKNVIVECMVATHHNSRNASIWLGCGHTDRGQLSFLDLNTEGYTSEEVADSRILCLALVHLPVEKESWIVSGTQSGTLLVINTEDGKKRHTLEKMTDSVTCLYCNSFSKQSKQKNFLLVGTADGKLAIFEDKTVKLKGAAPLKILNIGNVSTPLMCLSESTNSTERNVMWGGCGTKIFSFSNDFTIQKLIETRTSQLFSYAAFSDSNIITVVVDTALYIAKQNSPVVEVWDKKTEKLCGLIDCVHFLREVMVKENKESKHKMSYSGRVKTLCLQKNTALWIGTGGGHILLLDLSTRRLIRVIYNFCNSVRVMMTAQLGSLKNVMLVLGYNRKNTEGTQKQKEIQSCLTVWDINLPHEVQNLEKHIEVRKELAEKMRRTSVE

SMILES	inhibition at 1 µM [1] [%]	inhibition at 1 µM [2] [%]	inhibition at 1 µM [3] [%]	inhibition at 1 µM [4] [%]	inhibition at 1 µM [5] [%]	inhibition at 1 µM [6] [%]	inhibition at 1 µM [7] [%]	inhibition at 1 µM [8] [%]	inhibition at 1 µM [9] [%]	inhibition at 1 µM [10] [%]	inhibition at 1 µM [11] [%]	inhibition at 1 µM [12] [%]	inhibition at 1 µM [13] [%]	inhibition at 1 µM [14] [%]	inhibition at 1 µM [15] [%]	inhibition at 1 µM [16] [%]	inhibition at 1 µM [17] [%]	inhibition at 1 µM [18] [%]	inhibition at 1 µM [19] [%]	inhibition at 1 µM [20] [%]	further results
CCOC(=O)Nc1cccc2c(Oc3ncccc3-c3ccnc(N[C@H]4CCCNC4)n3)c(C)ccc12 [G-1749]	-0.5	-3.5	10	-3.5	2	-4	37	5.5	-4	0	13.5	2.5	5	-1.5	-6	4.5	2.5	3.5	6	1	inhibition at 1 µM [21]: 16%; inhibition at 1 µM [22]: -16.5%; inhibition at 1 µM [23]: -0.5%; inhibition at 1 µM [24]: -3%; inhibition at 1 µM [25]: -2%
CC#CC(=O)Nc1cccc2c(Oc3ncccc3-c3ccnc(N[C@H]4CCCNC4)n3)c(C)ccc12 [G-7658]	-0.5	8.5	8	-2	1	-4	36	3.5	2	-1.5	27.5	1	3.5	-1	-9	7.5	3	1	5.5	4.5	inhibition at 1 µM [21]: 11.5%; inhibition at 1 µM [22]: -13.5%; inhibition at 1 µM [23]: 1%; inhibition at 1 µM [24]: -3%; inhibition at 1 µM [25]: -8.5%
